Laboratory results taken from article PMC12722308, “A phase 1 study of orally administered 5-fluoro-2’-deoxycytidine with tetrahydrouridine in patients with refractory solid tumors” (Cancer Chemotherapy and Pharmacology, 2025).
Marks after values point to notes of the source that are not given here.

Tests used:
[1] = Urinary excretion by LC-MS/MS; assay type: in vivo, human
Method: (§1) Blood specimens for PK analysis were collected on Cycle 1 Day 1 (C1D1) prior to THU administration and then at 15, 30, and 45 min and 1, 2, 3, 4, 5, and 6 h after THU administration, as well as on C1D2 and C1D3 prior to and 2 h after THU administration. Urine specimens for PK analysis were collected on C1D1 prior to treatment and then at every void from 0 to 24 h after THU administration. All specimens for PK analysis were processed and analyzed by LC-MS/MS as described previously, and Phoenix WinNonlin software was used for data analysis.

[2] = Plasma pharmacokinetics by LC-MS/MS; assay type: in vivo, human
Method: as §1

[3] = All FdCyd doses + THU 3000 mg oral (n=44), geom. mean (geom. SD)
[4] = All FdCyd doses + THU 6000 mg oral (n=11), geom. mean (geom. SD)
[5] = DL1: FdCyd 30 mg + THU 3000 mg oral (n=3), geom. mean (geom. SD)
[6] = DL1: FdCyd 30 mg + THU 3000 mg oral (n=3), no SD given
[7] = DL2: FdCyd 60 mg + THU 3000 mg oral (n=4), geom. mean (geom. SD)
[8] = DL3: FdCyd 90 mg + THU 3000 mg oral (n=3), geom. mean (geom. SD)
[9] = DL4: FdCyd 120 mg + THU 3000 mg oral (n=3), geom. mean (geom. SD)
[10] = DL5-9: FdCyd 160 mg + THU 3000 mg oral (n=31), geom. mean (geom. SD)
[11] = DL10: FdCyd 60 mg + THU 6000 mg oral (n=8), geom. mean (geom. SD)
[12] = DL11: FdCyd 80 mg + THU 6000 mg oral (n=3), geom. mean (geom. SD)
[13] = Total, all dose levels (n=55), geom. mean (geom. SD)
[14] = DL2: FdCyd 60 mg + THU 3000 mg oral, FU n=3, geom. mean (geom. SD)
[15] = DL3: FdCyd 90 mg + THU 3000 mg oral, FU n=3, geom. mean (geom. SD)
[16] = DL4: FdCyd 120 mg + THU 3000 mg oral, FU n=2, geom. mean (geom. SD)
[17] = DL5-9: FdCyd 160 mg + THU 3000 mg oral, FU n=29, geom. mean (geom. SD)
[18] = DL10: FdCyd 60 mg + THU 6000 mg oral, FU n=8, geom. mean (geom. SD)
[19] = DL11: FdCyd 80 mg + THU 6000 mg oral, FU n=3, geom. mean (geom. SD)

Compound: O=c1[nH]c(=O)n([C@H]2C[C@H](O)[C@@H](CO)O2)cc1F [FdUrd]
- FdUrd urinary excretion over 0-24 hours of day 1 ([1]; All FdCyd doses + THU 3000 mg, N=5, geom. mean (geom. SD)): 0.053 (1.3) % dose
- FdUrd urinary excretion over 0-24 hours of day 1 ([1]; All FdCyd doses + THU 6000 mg, N=3, geom. mean (geom. SD)): 0.10 (2.6) % dose
- FdUrd urinary excretion over 0-24 hours of day 1 ([1]; DL4: FdCyd 120 mg + THU 3000 mg, N=2, geom. mean (geom. SD)): 0.064 (1.0) % dose
- FdUrd urinary excretion over 0-24 hours of day 1 ([1]; DL5-9: FdCyd 160 mg + THU 3000 mg, N=3, geom. mean (geom. SD)): 0.047 (1.3) % dose
- FdUrd urinary excretion over 0-24 hours of day 1 ([1]; DL10: FdCyd 60 mg + THU 6000 mg, N=2, geom. mean (geom. SD)): 0.14 (2.6) % dose
- FdUrd urinary excretion over 0-24 hours of day 1 ([1]; DL11: FdCyd 80 mg + THU 6000 mg, N=1): 0.045 (-) % dose
- FdUrd AUC/Dose [2, 3]: 0.55 (1.6)^d µg/L•h/mg
- FdUrd Cmax/Dose [2, 3]: 0.19 (1.6)^c µg/L / mg
- FdUrd t½ [2, 3]: 1.3 (1.9) h
- FdUrd/FdCyd metabolic ratio, AUC0-inf [2, 3]: 0.068 (2.1)^f
- FdUrd/FdCyd metabolic ratio, Cmax [2, 3]: 0.048 (2.0)^e
- FdUrd AUC/Dose [2, 4]: 0.80 (1.6)^d µg/L•h/mg
- FdUrd Cmax/Dose [2, 4]: 0.34 (1.5)^c µg/L / mg
- FdUrd t½ [2, 4]: 1.2 (1.6) h
- FdUrd/FdCyd metabolic ratio, AUC0-inf [2, 4]: 0.067 (1.4)^f
- FdUrd/FdCyd metabolic ratio, Cmax [2, 4]: 0.051 (1.9)^e
- FdUrd Cmax [2, 5]: 0.012 (1.4) mg/L
- FdUrd Cmax/Dose [2, 5]: 0.41 (1.4) µg/L / mg
- FdUrd/FdCyd metabolic ratio, Cmax [2, 5]: 0.099 (1.6)
- FdUrd AUC0-inf [2, 6]: 0.047 (-) mg/L•h
- FdUrd AUC/Dose [2, 6]: 1.58 (-) µg/L•h/mg
- FdUrd t½ [2, 6]: 3.3 (-) h
- FdUrd/FdCyd metabolic ratio, AUC0-inf [2, 6]: 0.069 (-)
- FdUrd AUC0-inf [2, 7]: 0.044 (1.72) mg/L•h
- FdUrd AUC/Dose [2, 7]: 0.73 (1.7) µg/L•h/mg
- FdUrd Cmax [2, 7]: 0.011 (1.7) mg/L
- FdUrd Cmax/Dose [2, 7]: 0.19 (1.7) µg/L / mg
- FdUrd t½ [2, 7]: 1.8 (3.4) h
- FdUrd/FdCyd metabolic ratio, AUC0-inf [2, 7]: 0.070 (3.5)
- FdUrd/FdCyd metabolic ratio, Cmax [2, 7]: 0.039 (2.3)
- FdUrd AUC0-inf [2, 8]: 0.043 (1.20) mg/L•h
- FdUrd AUC/Dose [2, 8]: 0.48 (1.2) µg/L•h/mg
- FdUrd Cmax [2, 8]: 0.015 (1.2) mg/L
- FdUrd Cmax/Dose [2, 8]: 0.16 (1.2) µg/L / mg
- FdUrd t½ [2, 8]: 1.1 (1.3) h
- FdUrd/FdCyd metabolic ratio, AUC0-inf [2, 8]: 0.041 (1.7)
- FdUrd/FdCyd metabolic ratio, Cmax [2, 8]: 0.028 (1.7)
- FdUrd AUC0-inf [2, 9]: 0.054 (1.97) mg/L•h
- FdUrd AUC/Dose [2, 9]: 0.45 (2.0) µg/L•h/mg
- FdUrd Cmax [2, 9]: 0.016 (1.6) mg/L
- FdUrd Cmax/Dose [2, 9]: 0.14 (1.6) µg/L / mg
- FdUrd t½ [2, 9]: 1.7 (1.2) h
- FdUrd/FdCyd metabolic ratio, AUC0-inf [2, 9]: 0.034 (1.3)
- FdUrd/FdCyd metabolic ratio, Cmax [2, 9]: 0.018 (1.3)
- FdUrd AUC0-inf [2, 10]: 0.084 (1.55) mg/L•h
- FdUrd AUC/Dose [2, 10]: 0.53 (1.6) µg/L•h/mg
- FdUrd Cmax [2, 10]: 0.031 (1.5) mg/L
- FdUrd Cmax/Dose [2, 10]: 0.20 (1.5) µg/L / mg
- FdUrd t½ [2, 10]: 1.2 (1.7) h
- FdUrd/FdCyd metabolic ratio, AUC0-inf [2, 10]: 0.070 (1.8)
- FdUrd/FdCyd metabolic ratio, Cmax [2, 10]: 0.054 (1.9)
- FdUrd AUC0-inf [2, 11]: 0.047 (1.59) mg/L•h
- FdUrd AUC/Dose [2, 11]: 0.79 (1.6) µg/L•h/mg
- FdUrd Cmax [2, 11]: 0.023 (1.4) mg/L
- FdUrd Cmax/Dose [2, 11]: 0.38 (1.4) µg/L / mg
- FdUrd t½ [2, 11]: 1.0 (1.5) h
- FdUrd/FdCyd metabolic ratio, AUC0-inf [2, 11]: 0.072 (1.4)
- FdUrd/FdCyd metabolic ratio, Cmax [2, 11]: 0.060 (1.8)
- FdUrd AUC0-inf [2, 12]: 0.068 (1.68) mg/L•h
- FdUrd AUC/Dose [2, 12]: 0.85 (1.7) µg/L•h/mg
- FdUrd Cmax [2, 12]: 0.019 (1.6) mg/L
- FdUrd Cmax/Dose [2, 12]: 0.24 (1.6) µg/L / mg
- FdUrd t½ [2, 12]: 1.7 (1.5) h
- FdUrd/FdCyd metabolic ratio, AUC0-inf [2, 12]: 0.056 (1.2)
- FdUrd/FdCyd metabolic ratio, Cmax [2, 12]: 0.033 (1.8)
- FdUrd Cmax/Dose [2, 13]: 0.22 (1.6) µg/L / mg
- FdUrd t½ [2, 13]: 1.3 (1.8) h

Compound: O=c1[nH]cc(F)c(=O)[nH]1 [FU]
- FU urinary excretion over 0-24 hours of day 1 ([1]; All FdCyd doses + THU 3000 mg, N=27, geom. mean (geom. SD)): 0.37 (2.0) % dose
- FU urinary excretion over 0-24 hours of day 1 ([1]; All FdCyd doses + THU 6000 mg, N=9, geom. mean (geom. SD)): 0.27 (2.5) % dose
- FU urinary excretion over 0-24 hours of day 1 ([1]; DL1: FdCyd 30 mg + THU 3000 mg, N=1): 0.20 (-) % dose
- FU urinary excretion over 0-24 hours of day 1 ([1]; DL2: FdCyd 60 mg + THU 3000 mg, N=1): 0.51 (-) % dose
- FU urinary excretion over 0-24 hours of day 1 ([1]; DL4: FdCyd 120 mg + THU 3000 mg, N=1): 0.34 (-) % dose
- FU urinary excretion over 0-24 hours of day 1 ([1]; DL5-9: FdCyd 160 mg + THU 3000 mg, N=24, geom. mean (geom. SD)): 0.38 (2.1) % dose
- FU urinary excretion over 0-24 hours of day 1 ([1]; DL10: FdCyd 60 mg + THU 6000 mg, N=6, geom. mean (geom. SD)): 0.32 (2.5) % dose
- FU urinary excretion over 0-24 hours of day 1 ([1]; DL11: FdCyd 80 mg + THU 6000 mg, N=3, geom. mean (geom. SD)): 0.21 (3.0) % dose
- FU AUC0-inf [2, 14]: 0.019 (1.70) mg/L•h
- FU Cmax [2, 14]: 0.0042 (1.2) mg/L
- FU AUC0-inf [2, 15]: 0.026 (1.54) mg/L•h
- FU Cmax [2, 15]: 0.0055 (1.1) mg/L
- FU AUC0-inf [2, 16]: 0.032 (1.12) mg/L•h
- FU Cmax [2, 16]: 0.0082 (1.4) mg/L
- FU AUC0-inf [2, 17]: 0.052 (1.66) mg/L•h
- FU Cmax [2, 17]: 0.015 (1.6) mg/L
- FU AUC0-inf [2, 18]: 0.033 (1.30) mg/L•h
- FU Cmax [2, 18]: 0.011 (1.3) mg/L
- FU AUC0-inf [2, 19]: 0.044 (1.36) mg/L•h
- FU Cmax [2, 19]: 0.010 (1.1) mg/L
